Where two headings read alike, the source gives them in different places.
How the values were obtained:
phospho-ERK1/2 = conditions: cited from earlier work
[1] = system: BRAFV600E mutant melanoma cell lines A2058, RPMI-7951 and M233; experiment: MTS cell viability after miR-3157 mimic transfection, intrinsically resistant lines; format: cell-based; conditions: A2058, RPMI-7951, M233; 10 nM mimic, 72 hours (FIG. 11b)
Protocol: miR-3157 broadly affects melanoma cell line viability. Melanoma cell lines were divided into those that have the BRAFV600E mutation and are sensitive (a), intrinsically resistant (b) or acquired resistance to vemurafenib (c). Cell lines were transfected in triplicate with control miRNA or miR-3157 mimics (10 nM; n=2). Mock is transfectant only. Cell viability was determined using the MTS assay and calculated relative to mock transfected cells.
A375 cells were obtained from the Hubrecht Institute (Utrecht, The Netherlands); SKMEL-28, A2058 and RPMI-7951 were from the ATCC; SKMEL-57 was a gift from Dr. Patricia Groenen (Radboud University Nijmegen Medical Centre, The Netherlands); for cell line characteristics of M249, M249-AR4, M233 and M376 see (Atefi et al. 2011). A375-R, with in vitro acquired resistance to vemurafenib, was established in our lab by clonal selection of cells continually exposed to 1 μM vemurafenib. A375, A375-R, SKMEL-28, A2058 and SKMEL-57 were grown in DMEM GlutaMAX™-I (Gibco®), all other cell lines in RPMI-1640 (Gibco®). Media was supplemented with 10% FBS (Sigma), and cells were maintained in a humidified 37° C. incubator (Thermo Scientific) with 5% CO2. […]
Cells were seeded in 96-well plates and transfected the next day. […] Read-out was performed at 490 nm on a Multiskan FC plate reader (Thermo Scientific) at 72 hours post transfection.

[2] = system: A375Hu-R1 melanoma cell line; experiment: Anti-proliferative effect of miRNA mimics, MTS assay; format: cell-based, human; conditions: 10 nM mimic, 72 hours after transfection
Protocol: (§1) The anti-proliferative effect of miRNA's in melanoma cell lines was determined with mature miRNA mimics from Ambion. For each cell line optimal growth and transfection conditions were determined prior to the experiment. Cells were plated in a 96-well plate at 3000 cells per well (100 uL) and were grown at 37 C, 5% CO2. Transfection mix (20 uL per well) was made for each miRNA mimic concentration with 0.3 uL (M249, M249-R4) or 0.5 uL (A375Hu, A375Hu-R1, A2058, RPMI-7951) X-TremeGene (Roche) per well (according to manufacturer's instructions) in Optimem (Invitrogen). Cells were transfected 24 hours after plating in triplicate. Medium was replaced 48 hours after transfection with fresh medium.

[3] = system: A375Hu melanoma cell line; experiment: as above; format: cell-based, human; conditions: 10 nM mimic, 72 hours after transfection
Protocol: as §1

[4] = system: mRNA levels in A375 cells; experiment: RNA sequencing (transcriptome) of transfected A375 cells; format: cell-based, human; conditions: 100 nM mimic
Protocol: A375 cells were plated in duplo in a 6-well plate at 1.5×10^5 cells/well. The next day, cells were transfected with 100 nM miR-3157 or Negative Control #2 mimics, using 15 μl X-tremeGENE. This procedure (plating and transfection) was repeated three times to generate biological replicates. After 72 hrs, total RNA was isolated using TRI reagent (Sigma-Aldrich) according to the manufacturer's protocol. From 30 μg total RNA, the mRNA was isolated using the MicroPoly(A)Purist kit (Ambion), and the mRNA-ONLY Eukaryotic mRNA Isolation Kit (Epicenter). RNAseq libraries were further prepared using the SOLiD™ Total RNA-Seq Kit (Life Technologies (LT)). Fragmentation of the isolated mRNA was performed by incubation in 20 μl 3 mM MgCl/10 mM Tris pH8, for 15 minutes at 95° C. The fragmented mRNA was incubated with SOLiD™ Adapter mix (LT) in STAR hybridization solution (LT), and incubated for 5 minutes at 65° C. After incubation on ice, adapter ligation was performed according to the STAR protocol (LT). The samples were run on a 10% denaturing polyacrylamide gel, and fragments from 180-300 nucleotides were excised. Reverse transcription and PCR amplification of the libraries was performed according to the STAR protocol, followed by excision of 200 to 300 nucleotide fragments from a 6% native polyacrylamide gel. Sequencing of the fragments was performed on the SOLiD™ System (LT). […]

Compound	pERK (phospho-ERK1/2; A375, A2058 and M249 (Atefi et al. 2011, Nazarian et al. 2010))	pERK (phospho-ERK1/2; M249-AR4 and M376 (Atefi et al. 2011, Nazarian et al. 2010))	cell viability relative to mock transfected cells [1]	A375Hu-R1 % Viability 10 nM [2] [%]	A375Hu % Viability 10 nM [3] [%]	decrease of mRNA levels of CDK4, BCL2 and BIRC5 in the RNAseq analysis ([4]; 72 hrs) [%]	predicted targets with reduced mRNA levels ([4]; change at least 60%, p<10^-5, in silico target prediction) [genes]
CCCS(=O)(=O)Nc1ccc(F)c(C(=O)c2c[nH]c3ncc(-c4ccc(Cl)cc4)cc23)c1F [Vemurafenib, N-(3-{[5-(4-chlorophenyl)-1H-pyrrolo[2,3-b]pyridin-3-yl]carbonyl}-2,4-difluorophenyl)propane-1-sulfonamide]	downregulates	not	–	–	–	–	–
hsa-miR-3157-5p: mature miRNA mimic, SEQ ID NO 6 UUCAGCCAGGCUAGUGCAGUCU (listed as RNA, chemistry not given here)	–	–	viability was reduced	67	42	60	145

— patent publication US10201556B2, “Combination for use in treating diseases or conditions associated with melanoma, or treating diseases or conditions associated with activated B-raf pathway” (InteRNA Technologies B.V., priority 2012, dated 2019)
